Structures are written as SMILES.

T1 sequence (Q9UKE5 1-367 limits assumed): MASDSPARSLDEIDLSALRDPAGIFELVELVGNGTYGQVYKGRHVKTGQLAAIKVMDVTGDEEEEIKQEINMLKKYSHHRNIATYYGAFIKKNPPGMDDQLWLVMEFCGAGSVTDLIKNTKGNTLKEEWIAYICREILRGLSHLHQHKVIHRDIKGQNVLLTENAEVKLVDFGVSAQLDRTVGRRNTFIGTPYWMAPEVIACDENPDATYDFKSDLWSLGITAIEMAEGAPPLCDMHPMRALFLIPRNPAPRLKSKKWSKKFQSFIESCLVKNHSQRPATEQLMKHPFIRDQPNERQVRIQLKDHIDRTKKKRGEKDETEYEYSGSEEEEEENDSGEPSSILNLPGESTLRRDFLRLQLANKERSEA

This experiment addresses T1, TNIK (Homo sapiens, UniProt Q9UKE5).
T1 construct: purchased Promega V4158
The experiment in a line: ADP-Glo Kinase Assay, inhibition activity on TNIK. The note with it: read-out: TNIK. It counts as biochemical. On the procedure: The inhibition activities on TNIK, IKKε and TBK1 were measured by a luminometer, TNIK/IKKε/TBK1 Kinase Enzyme System (Promega, Ca# V4158; Invitrogen, PR8031B, Promega, Ca# V3991) and ADP-Glo Kinase Assay using ADP-Glo™ Kinase Analysis Kit (Promega, Ca# V9101) and a kinase reaction buffer [40 mM Tris(pH 7.5), 20 mM MgCl2, 0.1 mg/mL BSA] in accordance with the manufacturer's protocol.
In general terms: ADP-Glo turns the ADP formed in a reaction into a luminescent signal.
Regarding `CC(C)(O)c1ccc(NC(=O)c2ccc(F)cc2)c2c1CNC2=O` [Example 393, 4-Fluoro-N-(7-(2-hydroxypropan-2-yl)-3-oxoisoindolin-4-yl) benzamide], the IC50 is 2570 nM.

In the case of `CC(C)(O)c1ccc(NC(=O)c2ccc(NCCN3CCCC3)cc2)c2c1CNC2=O` [Example 394, N-(7-(2-hydroxypropan-2-yl)-3-oxoisoindolin-4-yl)-4-((2-(pyrrolidin-1-yl)ethyl)amino)benzamide], the IC50 was 5440 nM.

Regarding `O=C(Nc1ccc(O)c2c1C(=O)NC2)c1ccc(F)cc1` [Example 396, 4-Fluoro-N-(7-hydroxy-3-oxoisoindolin-4-yl)benzamide], the IC50 came to 1290 nM.

On to `CC(=O)Nc1ccc(C(=O)Nc2ccc(-c3ccccc3)c3c2C(=O)NCC3)cc1` [Example 397, 4-Acetamido-N-(1-oxo-5-phenyl-1,2,3,4-tetrahydroisoquinolin-8-yl)benzamide], for which the IC50 was found to be 5400 nM.

Consider `O=C(Nc1ccc(-c2ccccc2)c2c1C(=O)NCC2)c1ccccc1` [Example 398, N-(1-oxo-5-phenyl-1,2,3,4-tetrahydroisoquinolin-8-yl) benzamide], for which the IC50 was found to be 3300 nM.

Turning to `O=C(Nc1ccc(-c2ccccc2)c2c1C(=O)NCC2)c1ccco1` [Example 399, N-(1-oxo-5-phenyl-1,2,3,4-tetrahydroisoquinolin-8-yl)furan-2-carboxamide], the IC50 was found to be 1800 nM.

Regarding `COc1cccc(-c2ccc(NC(=O)c3ccc(F)cc3)c3c2CCNC3=O)c1OC` [Example 400, N-(5-(2,3-dimethoxyphenyl)-1-oxo-1,2,3,4-tetrahydroisoquinolin-8-yl)-4-fluorobenzamide], the IC50 was 8180 nM.

`O=C(Nc1ccc(-c2ccccc2)c2c1C(=O)NCC2)c1ccc(NCCN2CCCC2)cc1` [Example 401, N-(1-oxo-5-phenyl-1,2,3,4-tetrahydroisoquinolin-8-yl)-4-((2-(pyrrolidin-1-yl)ethyl)amino)benzamide]: the IC50 amounted to 2150 nM.

As to `COc1ccccc1-c1ccc(NC(=O)c2ccc(NCCN3CCCC3)cc2)c2c1CCNC2=O` [Example 402, N-(5-(2-methoxyphenyl)-1-oxo-1,2,3,4-tetrahydroisoquinolin-8-yl)-4-((2-(pyrrolidin-1-yl)ethyl)amino)benzamide], the IC50 turned out to be 2380 nM.

Consider `O=C(Nc1ccc(Br)c2c1C(=O)NCC2)c1ccc(NCCN2CCCC2)cc1` [Example 403, N-(5-bromo-1-oxo-1,2,3,4-tetrahydroisoquinolin-8-yl)-4-((2-(pyrrolidin-1-yl)ethyl)amino)benzamide], for which the IC50 worked out at 9820 nM.

On to `O=C(Nc1ccc(Sc2ccccc2)c2c1C(=O)NC2)c1ccc(F)cc1` [Example 404, 4-Fluoro-N-(3-oxo-7-(phenylthio)isoindolin-4-yl)benzamide], for which the IC50 was above 20000 nM.

Take `O=C(Nc1ccc(S(=O)(=O)c2ccccc2)c2c1C(=O)NC2)c1ccccc1` [Example 406, N-(3-oxo-7-(phenylsulfonyl)isoindolin-4-yl)benzamide]: the IC50 is above 20000 nM.

For `O=C(Nc1ccc(Sc2ccccc2)c2c1C(=O)NC2)c1ccccc1` [Example 407, N-(3-oxo-7-(phenylthio)isoindolin-4-yl)benzamide], the IC50 came to 2300 nM.

Consider `O=C(Nc1ccc(Nc2ccccc2)c2c1C(=O)NC2)c1ccc(F)cc1` [Example 408, 4-Fluoro-N-(3-oxo-7-(phenylamino)isoindolin-4-yl)benzamide], for which the IC50 was found to be 280 nM.

In the case of `O=C(Nc1ccc(Nc2ccccc2)c2c1C(=O)NC2)c1ccccc1` [Example 409, N-(3-oxo-7-(phenylamino)isoindolin-4-yl)benzamide], the IC50 came out at 320 nM.

Consider `COc1ccccc1Nc1ccc(NC(=O)c2ccccc2)c2c1CNC2=O` [Example 410, N-(7-((2-methoxyphenyl)amino)-3-oxoisoindolin-4-yl) benzamide], for which the IC50 amounted to 450 nM.

For `Cc1ccccc1Nc1ccc(NC(=O)c2ccccc2)c2c1CNC2=O` [Example 411, N-(3-oxo-7-(o-tolylamino)isoindolin-4-yl)benzamide], the IC50 is above 20000 nM.

On to `Cc1ccc(Nc2ccc(NC(=O)c3ccccc3)c3c2CNC3=O)cc1` [Example 412, N-(3-oxo-7-(p-tolylamino)isoindolin-4-yl)benzamide], for which the IC50 was 4100 nM.

For `O=C(Nc1ccc(Nc2ccccc2F)c2c1C(=O)NC2)c1ccccc1` [Example 413, N-(7-((2-fluorophenyl)amino)-3-oxoisoindolin-4-yl)benzamide], the IC50 stood at 500 nM.

On to `O=C(Nc1ccc(Nc2ccc(F)cc2)c2c1C(=O)NC2)c1ccccc1` [Example 414, N-(7-((4-fluorophenyl)amino)-3-oxoisoindolin-4-yl)benzamide], for which the IC50 worked out at 550 nM.

`O=C(Nc1ccc(Nc2cccc(F)c2)c2c1C(=O)NC2)c1ccccc1` [Example 415, N-(7-((3-fluorophenyl)amino)-3-oxoisoindolin-4-yl)benzamide]: the IC50 amounted to 1700 nM.

For the compound `COc1ccc(Nc2ccc(NC(=O)c3ccccc3)c3c2CNC3=O)cc1` [Example 416, N-(7-((4-methoxyphenyl)amino)-3-oxoisoindolin-4-yl) benzamide], the IC50 is 3700 nM.

In the case of `Cc1ccc(C(=O)Nc2ccc(Nc3ccccc3)c3c2C(=O)NC3)cc1` [Example 417, 4-Methyl-N-(3-oxo-7-(phenylamino)isoindolin-4-yl)benzamide], the IC50 is 500 nM.

For `O=C(Nc1ccc(Nc2cccc(Cl)c2)c2c1C(=O)NC2)c1ccc(F)cc1` [Example 418, N-(7-((3-chlorophenyl)amino)-3-oxoisoindolin-4-yl)-4-fluorobenzamide], the IC50 stood at 1170 nM.

Regarding `O=C(Nc1ccc(Nc2ccccc2Cl)c2c1C(=O)NC2)c1ccc(F)cc1` [Example 419, N-(7-((2-chlorophenyl)amino)-3-oxoisoindolin-4-yl)-4-fluorobenzamide], the IC50 was 2110 nM.

As for `O=C(Nc1ccc(Nc2ccccc2)c2c1C(=O)NC2)c1ccccc1F` [Example 420, 2-Fluoro-N-(3-oxo-7-(phenylamino)isoindolin-4-yl)benzamide], the IC50 worked out at 790 nM.

Consider `O=C(Nc1ccc(Nc2ccccc2)c2c1C(=O)NC2)c1cccc(F)c1` [Example 421, 3-Fluoro-N-(3-oxo-7-(phenylamino)isoindolin-4-yl)benzamide], for which the IC50 came to 820 nM.

Take `COc1cccc(Nc2ccc(NC(=O)c3ccc(F)cc3)c3c2CNC3=O)c1OC` [Example 422, N-(7-((2,3-dimethoxyphenyl)amino)-3-oxoisoindolin-4-yl)-4-fluorobenzamide]: the IC50 was 1180 nM.

Turning to `O=C(Nc1ccc(Nc2cc(C(F)(F)F)cc(C(F)(F)F)c2)c2c1C(=O)NC2)c1ccc(F)cc1` [Example 423, N-(7-((3,5-bis(trifluoromethyl)phenyl)amino)-3-oxoisoindolin-4-yl)-4-fluorobenzamide], the IC50 is above 20000 nM.

Consider `Cc1cccc(Nc2ccc(NC(=O)c3ccc(F)cc3)c3c2CNC3=O)c1C` [Example 424, N-(7-((2,3-dimethylphenyl)amino)-3-oxoisoindolin-4-yl)-4-fluorobenzamide], for which the IC50 is 1350 nM.

With `COc1ccccc1Nc1ccc(NC(=O)c2ccc(F)cc2)c2c1CNC2=O` [Example 425, 4-Fluoro-N-(7-((2-methoxyphenyl)amino)-3-oxoisoindolin-4-yl)benzamide], the IC50 was 840 nM.

In the case of `Cc1ccccc1Nc1ccc(NC(=O)c2ccc(F)cc2)c2c1CNC2=O` [Example 426, 4-Fluoro-N-(3-oxo-7-(o-tolylamino)isoindolin-4-yl)benzamide], the IC50 is 1260 nM.

The record behind these values is US9856216B2, “Compounds as TNIK, IKKε and TBK1 inhibitors and pharmaceutical composition comprising same” (GREEN CROSS CORPORATION, priority 2015, dated 2018).
